“Also recorded” adds a separate entry of the source. Like-named read-outs stand apart in the source and are kept apart here.
Assays:
[1] = Stability of II-38 in hydrochloric acid buffer, pH 1.2; format: physicochemical; conditions: pH 1.2, 37° C., 5% DMSO, within 8 h
Description: pH: Stability in aqueous buffers (37° C., pHs 1.2 and 7.4)
HPLC analysis was carried out on an Agilent 1200 Infinity Series Quatpump, equipped with a photodiode array detector and a computer integrating apparatus. An Inertsil ODS-3 column, C18, 5 μm, 4.6×50 mm (GL Science Inc. Japan) protected with a guard column: Alltima C18, 5 μm, 4.6×7.5 mm (Grace Discovery Sciences, IL, USA) was used as the stationary phase. An isocratic method with a mobile phase consisting of water/acetonitrile (70:30) containing 0.05% formic acid in each was used. A flow rate of 0.9 mL/min was used and detection was carried out at a UV wavelength of 250 nm.
Hydrochloric acid, pH 1.2 buffer was prepared. II-38 (2.5 mg) was dissolved in 0.125 mL of DMSO (5%). Reactions were initiated by adding II-38 dissolved in DMSO slowly and gradually to a total volume of 2.375 mL of HCl buffer, pH 1.2 (Table 1) in a Franz cell diffusion chamber preheated to 37° C. The solution was mixed for 30 sec every half an hour using magnetic stirrer. Samples of 20 μL (20 μg/mL of II-38) were collected at 0, 1, 2, 4, 6 and 8 h. Each sample was mixed with acetonitrile QS to 1 mL, vortex-mixed for 30 sec and centrifuged at 10,000 rpm at room temp. A volume of 10 μL of the supernatant was injected into the HPLC spectrometer for detection of 2,4-DNP and II-38 in HCl buffer, pH 1.2.

[2] = Plasma pharmacokinetics of 2,4-DNP, i.v. and oral; format: in vivo, Sprague-Dawley male rats
Description: All procedures that involved the use of rats were conducted in accordance with the guidelines set forth by the University of Arkansas for Medical Sciences (UAMS) Institutional Animal Care and Use Committee established by the National Institutes of Health's Guide for the Care and Use of Laboratory Animals (1996). Male Sprague-Dawley rats weighing 250-300 grams were housed three per cage with ad libitum access to food and water in the Division of Laboratory Animal Resources, UAMS. Rats were anesthetized with isofluorane (2-5%)/oxygen (1.5-2.0 L/min) and surgically implanted with cannulae in the jugular (i.v. dosing) and femoral (blood sampling) veins. […] Following appropriate evidence of successful recovery from surgery, IV or oral dosing was performed and blood samples (0.15 mL) were collected at 0, 5, 15, 30, 45, 60, 120, 240 and 480 min. Plasma samples were prepared and analysis was run using a LC/MS/MS spectrometry.
2,4-DNP was dissolved in a phosphate-saline buffer solution, pH 7.4 containing 5% DMSO and 20% PEG-400 and filtered through a 0.2-μm filter. For the oral route, rats were gavaged with 5 mg/kg in a total volume of 8 mL/kg from a stock solution containing 0.625/mL of 2,4-DNP. For the i.v. injection, a total volume of 0.8 mL/kg was used at a dose of 1 mg/kg from a stock solution containing 1.25 mg/mL.
Jugular and femoral vein-catheterized Sprague-Dawley male rats (weights 250-300 g) were treated with 2,4-DNP at a single oral dose of 5 mg/kg (n=4) or a single i.v. dose of 1 mg/kg (n=3). For each i.v. and oral experiment, blood samples (0.15 mL) were collected at 0, 5, 15, 30, 45, 60, 120, 240 and 480 min. The withdrawn blood was replaced with heparinized saline (0.15 mL). Blood samples were centrifuged at 10,000 rpm for 10 min at room temperature, and plasma samples were prepared and analysis was run using a sensitive LC/MS/MS spectrometry method (see below).
To isolate the analytes from rat plasma, 50 μL of control or treated plasma fortified with 10 μL of 2,4-DNP-d3 (10 μg/mL) as an internal standard to which 0.3 mL of methanol followed by 0.3 mL of acetonitrile was added. The mixture was vortex-mixed for 30 s and centrifuged for 10 min at 10,000 rpm at room temperature. The supernatant was transferred into 5 mL glass tubes and evaporated to dryness at 37° C. under nitrogen gas. The pellet was reconstituted with 50 μL of acetonitrile, vortex-mixed for 30 sec, followed by sonication for 1 min. Following centrifugation at 1000 rpm for 10 min at room temperature, 5 μL of the supernatant was then injected onto the column, and analytes were quantified by a LC/MS/MS spectrometry.
1—Plasma concentrations of 2,4-DNP after a single i.v. injection of 2,4-DNP of 1 mg/kg or 5 mg/kg oral administration; 2—Plasma concentrations of II-38 and 2,4-DNP-released from II-38 after an i.v. injection 1.6 mg/kg of II-38 eq. to 1 mg/kg of 2,4-DNP or an oral dose of 8, 40 and 80 mg/kg of II-38 eq. to 5, 25 and 50 mg/kg of 2,4-DNP, respectively. The mass spectrometer was an Agilent quadrupole mass spectrometer operated in the multiple reaction monitoring (MRM) mode. 2,4-DNP-d3 was used as an internal standard. 2,4-DNP, II-38 and 2,4-DNP-d3 were separated using an Alltima C18 column, 5 μm, 3.2×150 mm (Grace Discovery Sciences, IL, USA) equipped with a guard column: Alltima C18, 5 μm, 4.6×7.5 mm (Grace Discovery Sciences, IL, USA). The mobile phase consists of water with 0.005% formic acid as solvent A and acetonitrile with 0.005% formic acid as solvent B. For analysis of 2,4-DNP, II-38 and 2,4-DNP-d3 compounds, the separation was achieved using a gradient of 10 to 90% solvent B in 3.5 min, which was maintained at 90% B for the next 3.30 min and then equilibrated back to the initial conditions over 3.20 min. The flow rate was 0.8 mL/min with a column temperature of 30° C. The sample injection volume was 5 μL. […]

[3] = system: mouse model of Alzheimer's disease; test: Alzheimer's disease mouse model, Morris Water Maze; format: in vivo; conditions: chronic treatment
Description: In one embodiment, the invention provides compositions and methods for treating neurodegenerative diseases such as Alzheimer's disease, Parkinson, and Huntington's disease. It is believed that the complete lack of historic success is due to most pharmaceutical industries focusing on a downstream event, such as plaques/tangles, whereas the issue is likely upstream at the mitochondria causing high cellular stress.

[4] = 2,4-DNP single oral dose 5 mg/kg, n = 4, 5 mg/kg
[5] = 2,4-DNP single oral dose 5 mg/kg, n = 4, listed as DNP, 5 mg/kg

Compound	hydrolysis / stability in HCl buffer [1]	AUC [2, 4]	t1/2 [2, 4]	AUC [2, 5]	Cmax [2, 5]	Tmax [2, 5]	t1/2 [2, 5]	half-life ([2]; male, Sprague-Dawley, rat, plasma, iv, 1 mg/kg, 2,4-DNP single i.v. dose 1 mg/kg, n = 3)	Cmax ([2]; male, Sprague-Dawley, rat, plasma, iv, 1 mg/kg, 2,4-DNP single i.v. dose 1 mg/kg, n = 3, read-out: Cmax)	clearance ([2]; male, Sprague-Dawley, rat, plasma, iv, 2,4-DNP single i.v. dose 1 mg/kg, n = 3)	AUC ([2]; male, Sprague-Dawley, rat, plasma, iv, 2,4-DNP single i.v. dose 1 mg/kg, n = 3, read-out: AUC (converted))	Vd ([2]; male, Sprague-Dawley, rat, plasma, iv, 2,4-DNP single i.v. dose 1 mg/kg, n = 3, read-out: Vss)	half-life ([2]; male, Sprague-Dawley, rat, plasma, po, 5 mg/kg, 2,4-DNP single oral dose 5 mg/kg, n = 4)	Cmax ([2]; male, Sprague-Dawley, rat, plasma, po, 5 mg/kg, 2,4-DNP single oral dose 5 mg/kg, n = 4, read-out: Cmax)	Tmax ([2]; male, Sprague-Dawley, rat, plasma, po, 5 mg/kg, 2,4-DNP single oral dose 5 mg/kg, n = 4, read-out: tmax (converted))	bioavailability ([2]; male, Sprague-Dawley, rat, plasma, 2,4-DNP single oral dose 5 mg/kg, n = 4)	AUC ([2]; male, Sprague-Dawley, rat, plasma, 2,4-DNP single oral dose 5 mg/kg, n = 4, read-out: AUC (converted))	short term memory in the Morris Water Maze [3]
O=C(Oc1ccc([N+](=O)[O-])cc1[N+](=O)[O-])N1CCOCC1 [II-38, 2,4-Dinitrophenyl morpholine-4-carboxylate]	no significant hydrolysis; also recorded: did not show significant hydrolysis; also recorded: no evidence of 2,4-DNP formation																	
O=[N+]([O-])c1ccc(O)c([N+](=O)[O-])c1 [2,4-DNP, 2,4-dinitrophenol]		13288.0 ± 1634.1 µg·min/mL	2.272 ± 0.182 h	13288 µg·min/mL	50 µg/mL	0.633 h	2.27 h	1.5 ± 0.165 h	11.5 ± 6.2 µg/mL	1.2 ± 0.6 mL/min/kg	1350 µg·min/mL	0.161 ± 0.135 L/kg	2.27 ± 0.182 h	50.1 ± 7.4 µg/mL	0.625 h	65.8 ± 11.4%	13300 µg·min/mL	strikingly improved

Source: patent publication US11406642B2, “DNP and DNP prodrug treatment of neuromuscular, neurodegenerative, autoimmune, developmental, traumatic brain injury, concussion, dry eye disease, hearing loss and/or metabolic diseases” (priority 2016, dated 2022)
